Assay results taken from patent publication US20180311225A1, “EXTERNAL PREPARATION” (TEIKA PHARMACEUTICAL CO., LTD., priority 2015, published 2018).

Tested on: allergic reaction at the conjunctiva sites (vascular hyperpermeability) of Wistar rats
Test: Rat passive allergic conjunctivitis model, Evans blue dye leakage (absorbance at 620 nm)
Format: in vivo
Conditions: Example 2, FIG. 1, presence or absence of the component
Text: As a trigger solution was used a solution prepared by mixing equal volumes of 1% (w/v) ovalbumin (Grade V; manufactured by Sigma-Aldrich Co. LLC)/physiological saline (manufactured by Otsuka Pharmaceutical Co., Ltd.) and 1% (w/v) Evans blue (manufactured by Wako Pure Chemical Industries, Ltd.)/physiological saline.
As an extraction solution was used an aqueous solution of acetone (manufactured by Wako Pure Chemical Industries, Ltd.)/0.5% (w/v) sodium sulfate (manufactured by Wako Pure Chemical Industries. Ltd.) (7:3).
After 48 h, 1 mL of the trigger solution was intravenously administered to trigger an allergic reaction at the conjunctiva sites. Then, each test solution was dropped onto the eyes at 15 min before and immediately before triggering the allergic reaction (the total of 2 times). […] The overnight extraction solution was centrifuged to recover a supernatant. Absorbance of the supernatant was measured at 620 nm.
Vascular hyperpermeability caused by an allergic reaction results in leakage of Evans blue. Thus, the less the amount of leakage of the dye, the more the vascular hyperpermeability is suppressed. This should be an indicator of the antiallergic effects. The amount of leakage of dye per tissue unit (gig/g) was calculated by using a predetermined standard curve. A dye amount ratio was calculated using the following equation to give an indicator of the suppression effects. […]

Row | SMILES | Contribution of the component to the antiallergic action when combined with ketotifen fumarate (group 6 compared with group 7, 8 or 10)
1 | O=C([O-])O.[Na+] [sodium bicarbonate] | can contribute to an antiallergic action
2 | [Cl-].[Na+] [sodium chloride] | can contribute to an antiallergic action
